Data taken from patent US20160324992A1, “IDENTIFICATION AND TREATMENT OF VULNERABLE PLAQUES” (OTTAWA HEART INSTITUTE RESEARCH CORPORATION, priority 2015, published 2016).
Where “and” joins values, the source holds several entries; their conditions need not be identical. Equal values may be shown once.

What was measured:
[1] = test system: RIP3; test: Western blot of RIP3 phosphorylation (band shift) in BMDMs; format: cell-based, mouse
Experimental: Western blot analysis. For western blot analysis of RIP3, cells were lysed in 1.25×sample buffer (83 mM Tris pH 6.8, 6.7% SDS, 13.3% Glycerol, 1.3% β-mercaptoethanol, 0.03% bromophenol blue) and boiled at 100° C. for 5 minutes prior to being subjected to SDS-PAGE and western blot analysis as previously described (Robinson et al., 2012). PVDF membranes were blocked with 5% skim milk, followed by incubation with RIP3 (ProSci Inc, 1:500) or HSP90 (Santa Cruz Biotechnology, 1:1000) antibodies. For analysis of MLKL protein, cells were lysed in ice-cold M2 lysis buffer (50 mM NaF, 20 mM Tris, pH 7.0, 0.5% NP40, 250 mM NaCl, 3 mM EDTA, 3 mM EGTA, supplemented with Roche protease and phosphatase inhibitor cocktails) for 30 mins before centrifugation to pellet insoluble component. Samples were mixed 3:1 with 4×sample loading buffer (Bio-Rad) prior to SDS PAGE and western blot analysis. PVDF membranes were blocked in 5% BSA and probed with MLKL (Millipore, 1:500) or GAPDH (Millipore, 1:1000) antibodies. Goat anti-mouse (1:2500) or anti-rabbit (1:5000) or anti-rat (1:2500) IRDye® secondary antibodies (Rockland) were utilized. The protein bands were visualized using Odyssey Infrared Imaging System (LI-COR Biotechnology).
Western blot analysis. […]

[2] = test system: ApoE−/− mice with established atherosclerosis; test: Atherosclerosis study: time-release pellets in Western diet fed ApoE−/− mice; format: in vivo, mouse
Experimental: Atherosclerosis Studies. All animal experiments were performed in accordance with the Animal Care and Use Committee, University of Ottawa, Canada. Eight week old Apo E^−/− mice (total n=17 mice) were fed an adjusted calories diet (21% fat; 0.2% cholesterol, Harlan Teklad) for 4 weeks to induce atherosclerotic progression. Mice were then injected with time-release placebo or Nec-1s tablets (2 mg/kg/day), which were synthesized by Innovative Research of America, USA. Mice were euthanized after 6 weeks of treatment, perfused with saline and aortic roots were embedded in OCT medium and frozen. Aortic roots were sectioned (10 μm) and stained with hematoxylin and eosin for lesion area and necrotic core quantification, and a minimum of 10 sections per animal were measured across the length of the entire aortic root. For en face aortic lesion quantifications, aortas were dissected removing all branching vessels down to the femoral bifurcation and then sliced ventrally and images of aortas were digitally captured using ImagePro™. Lesion areas within the entire length of the aorta were quantified using Image J™ and expressed relative to the total aortic surface area. Immunohistochemistry for vascular smooth muscle cells was performed using a primary antibody for a-smooth muscle actin (monoclonal, Sigma) conjugated to alkaline phosphatase and visualized using SigmaFAST Red (Sigma). Statistical significance between the two groups were analyzed using Students' t-test (p<0.05).
Atherosclerosis Studies. All animal experiments were performed in accordance with the Animal Care and Use Committee, University of Ottawa, Canada. Eight week old apoE−/− mice (total n=17 mice) were fed an adjusted calories diet (21% fat; 0.2% cholesterol, Harlan Teklad) for 4 weeks to induce atherosclerotic progression. Mice were then injected with time-release placebo or stable Necrostatin-1 (Nec-1)15 tablets (2 mg/kg/day), which were synthesized by Innovative Research of America, USA. Mice were euthanized after 6 weeks of treatment, perfused with saline and aortic roots were embedded in OCT medium and frozen. Aortic roots were sectioned (10 μm) and stained with hematoxylin and eosin for lesion area and necrotic core quantification, and a minimum of 10 sections per animal were measured across the length of the entire aortic root. For en face aortic lesion quantifications, aortas were dissected removing all branching vessels down to the femoral bifurcation and then sliced ventrally and images of aortas were digitally captured using ImageProTM. Lesion areas within the entire length of the aorta were quantified using Image JTM and expressed relative to the total aortic surface area. Immunohistochemistry to visualize macrophages and smooth muscle cells was performed using primary antibodies to CD68 (rat monoclonal, Serotec) or phosho-MLKL (rabbit polyclonal, Abcam) with a secondary conjugated to biotin and α-smooth muscle actin (monoclonal, Sigma) conjugated to alkaline phosphatase and visualized using DAB or SigmaFAST Red (Sigma), respectively. Image J was used to quantify positive staining area and statistical significance between the two groups were analyzed using Students' t-test (p<0.05)

SMILES: CN1C(=O)C(Cc2c[nH]c3ccccc23)NC1=S (stereo not drawn) [Nec-1, necrostatin-1]
- RIP3 phosphorylation induced by oxLDL and DAMPs (in words) ([1]; BMDMs co-incubated with oxLDL and DAMPs, 8 hours): can be inhibited
- oxLDL-induced RIP3 phosphorylation (in words) ([1]; BMDMs, oxLDL±zVAD.fmk±Nec-1, 8 hours): dampened
- body weight (in words) ([2]; 2 mg/kg/day, 6 weeks, data not shown): not affected
- CD68+ macrophage area, % of lesion area ([2]; 2 mg/kg/day, 6 weeks, placebo 34.4%±3.2, p=ns): 43.5%±3.7
- increase of smooth muscle actin area within the aortic sinus ([2]; 2 mg/kg/day, 6 weeks, vs placebo): 70%
- atherosclerotic lesion area versus placebo (in words) ([2]; Western diet 4 weeks then 2 mg/kg/day for 6 weeks): reduced lesion area in the aortic sinus and aorta
- reduction of aortic root lesion area compared to controls ([2]; Western diet, 2 mg/kg/day, 6 weeks): 27%
- aortic root lesion area ([2]; Western diet, 2 mg/kg/day, 6 weeks, placebo 0.50±0.03 mm^2): 0.37±0.05 mm^2
- en face lesion area as a % of total aorta area ([2]; Western diet, 2 mg/kg/day, 6 weeks, placebo 9.9±0.9%): 3.1±0.3%
- reduction of en face lesion burden compared to placebo ([2]; Western diet, time-release pellet 2 mg/kg/day, 6 weeks, ascending and descending aorta): 68%
- reduction of pMLKL positive area compared to placebo controls ([2]; aortic sinus lesions, 2 mg/kg/day, 6 weeks): 63%
- reduction of lesion necrotic core area compared to placebo ([2]; aortic sinus, 2 mg/kg/day, 6 weeks): 62.6% and 62%
